We go through four compounds from US20140178432A1, “PRODUCTION OF DENSE BODIES (DB) FROM HCMV-INFECTED CELLS” (priority 2011, published 2014).

“Also recorded” adds a separate entry of the source.

Format in all cases: cell-based, human cytomegalovirus (HCMV)
For one assay, the system named is HCMV strain TB40/E. As to the kind of experiment: Dense Body (DB) production in HUVEC infected with HCMV strain TB40/E, electron microscopy. Conditions: for virions in the cytoplasm of the treated batch / concentration of DB in the cytoplasm of the infected cells (electron microscope): HUVEC infected with HCMV TB40/E, A: 300 nmol/l, B: 300 nmol/l, C: 3 μmol/l; for concentration of DB in the cytoplasm of the infected cells (electron microscope): control only a few DB; for concentration that led to optimal results (DB production): HUVEC infected with HCMV strain TB40/E. As to the method:
(§1) Human foreskin fibroblasts (“human foreskin fibroblasts, HFF”) were added in an amount of 1×10^6 cells per flask in 5 T75-cell culture flasks on the day before the infection. The HCMV strain AD 169 was prepared as a frozen, cell-free virus preparation that was obtained from cells that were present in a late stage of infection. The substances (A), (B), (C), and (D) according to the invention were provided as stock solutions of 50 mmol/l each in DMSO.
(§2) The HFF cells were incubated for one hour with the virus preparation at a m.o.i. (“multiplicity of infection”) of ≧≧1 TCID 50/cell (1:20 dilution). Then, the virus supernatant was removed, and an incubation of the infected cells was carried out with the substances according to the invention at the following concentrations: A: 50 nmol/l; B: 5 nmol/l; C: 500 nmol/l; D: 500 nmol/l.
(§3) The cells were incubated for 5 days, whereby a renewal of the substance-containing medium was performed after the first and fourth days. After the incubation, the infected cells were examined by electron microscope in the formation of DB.
In another experiment, human endothelial cells from the umbilical vein (HUVEC) were infected with the HCMV strain TB40/E, which was isolated from cells in a late stage of infection. The experimental design corresponds to the one shown under 2.1, whereby the incubation of cells was carried out at the following concentrations of the substances according to the invention: A: 300 nmol/l; B: 300 nmol/l: C: 3 μmol/l; D: […].

A further assay has as its system clinical HCMV isolate. As to the kind of experiment: Dense Body (DB) production in HFF infected with a clinical HCMV isolate, co-cultured with non-infected HFF, electron microscopy. Conditions: HFF infected with a clinical isolate of HCMV, co-culture with non-infected HFF. On the procedure: HFF were infected with a clinical HCMV isolate, which was isolated from cells in a late stage of infection, as further described above under 2.1. The infected HFF were co-cultivated with non-infected HFF in mini-trays (3,000 cells/recess). Three different ratios of infected/non-infected cells were produced: undiluted; 1:2 diluted; 1:4 diluted. The substances according to the invention were incubated with the cells at the following concentrations: A: 300 nmol/l; B: 300 nmol/l; C: 3 μmol/l; D: 30 μmol/l.
After 5 days of incubation at 37° C., the electron-microscopic study was carried out. […] The greater the dilution with non-infected cells, the fewer DB accumulated in the cytoplasm. In the control batch without a substance according to the invention, only very few DB could be identified. Moreover, the ejection of infectious particles from the cell nucleus was prevented in turn by the addition of the substances according to the invention.

A further assay relates to HCMV strain AD169. As to the kind of experiment: Dense Body (DB) production in human foreskin fibroblasts infected with HCMV strain AD169, electron microscopy. As to conditions: for infectious virus particles in the cytoplasm of treated cells / accumulation of DB in the cytoplasm (electron microscope): HFF infected with HCMV AD169, 5 days incubation, A: 50 nmol/l, B: 5 nmol/l, C: 500 nmol/l, D: 500 nmol/l; for infectious virus particles in the cytoplasm of treated cells: untreated cells relatively large numbers; for accumulation of DB in the cytoplasm (electron microscope): untreated cells virtually no DB; for concentration that led to optimal results (DB production): HFF infected with HCMV strain AD169. On the procedure: as §1
The stock solutions were diluted 1:1000 to a final concentration of 50 μmol/l. The solutions were further diluted as follows: A: 1:1000 (50 nmol/l) 12 μml in 12 ml of MEM; B: 1:10,000 (5 nmol/l) 1.2 μml in 12 ml of MEM; C: 1:100 (500 nmol/l) 120 μml in 12 ml of MEM; D: 1,100 (500 nmol/l) 120 μml in 12 ml of MEM.
as §2, §3

Turning to `Cc1ccc(N2CCN(C(=O)c3nc(NC(=O)Nc4ccc(OC(F)(F)F)cc4)cn3C)CC2)nc1` [substance (B), N-{1-methyl-2-[(4-(5-methyl-pyridin-2-yl)-piperazin-1-yl)carbonyl]-1H-imidazol-4-yl}-N′-[4-(trifluoromethoxy)phenyl]urea], in the assay on HCMV strain TB40/E, the “virions in the cytoplasm of the treated batch” value (from here on “virions in the cytoplasm”) is reported as “no virions could be detected”, the “concentration of DB in the cytoplasm of the infected cells (electron microscope)” value (“concentration of DB” for short) was “strong concentration of DB” and the “concentration that led to optimal results (DB production)” value was determined as 300 nmol/L. The “concentration that led to good results (DB production)” value in the assay with clinical HCMV isolate came to 300 nmol/L. For the same compound, in the assay on HCMV strain AD169, the “infectious virus particles in the cytoplasm of treated cells” value (“infectious virus particles” below) is on record as “no single infectious virus particle was to be found”, the “accumulation of DB in the cytoplasm (electron microscope)” value (shortened to “accumulation of DB in the cytoplasm”) was “large amounts of DB; also recorded: high concentrations of DB” and the “concentration that led to optimal results (DB production)” value is 5 nmol/L.
On to `COc1c(N2CCC(C(=O)O)CC2)c(F)cc2c(=O)c(C(=O)NCc3ccc(OC(F)(F)F)cc3C)cn(CC(F)(F)F)c12` [substance (C), 1-[6-fluoro-8-methoxy-3-({[2-methyl-4-(trifluoromethoxy)benzyl]amino}carbonyl)-4-oxo-1-(2,2,2-trifluoroethyl)-1,4-dihydroquinolin-7-yl]piperidine-4-carboxylic acid], for which, in the assay with HCMV strain TB40/E, the “virions in the cytoplasm” value is recorded as “no virions could be detected”, the “concentration of DB” value is recorded as “strong concentration of DB” and the “concentration that led to optimal results (DB production)” value was 3000 nmol/L. In addition, the “concentration that led to good results (DB production)” value in the assay on clinical HCMV isolate was 3000 nmol/L. Moreover, in the assay on HCMV strain AD169, the “infectious virus particles” value is listed as “no single infectious virus particle was to be found”, the “accumulation of DB in the cytoplasm” value is recorded as “large amounts of DB; also recorded: high concentrations of DB” and the “concentration that led to optimal results (DB production)” value is 500 nmol/L.
As to `COc1cccc(N2CCN(C3=Nc4c(F)cccc4[C@H](CC(=O)O)N3c3cc(C(F)(F)F)ccc3OC)CC2)c1` [substance (A), (4S)-{8-fluoro-2-[4-(3-methoxyphenyl)-1-piperazinyl]-3-[2-methoxy-5-(trifluoromethyl)-phenyl]-3,4-dihydro-4-quinazolinyl}acetic acid], in the assay with HCMV strain TB40/E, the “virions in the cytoplasm” value is reported as “no virions could be detected”, the “concentration of DB” value is reported as “strong concentration of DB” and the “concentration that led to optimal results (DB production)” value was 300 nmol/L. In addition, in the assay with clinical HCMV isolate, the “concentration that led to good results (DB production)” value is 300 nmol/L. For the same compound, in the assay with HCMV strain AD169, the “infectious virus particles” value is reported as “no single infectious virus particle was to be found”, the “accumulation of DB in the cytoplasm” value is recorded as “large amounts of DB; also recorded: high concentrations of DB” and the “concentration that led to optimal results (DB production)” value was determined as 50 nmol/L.
Turning to `N#CC1(C(=O)Nc2cc(F)cc(NS(=O)(=O)c3ccc(-c4noc(-c5cccc(N)n5)n4)cc3)c2)CC1` [substance (D), N-{3-[({4-[5-(6-aminopyridin-2yl)-1,2,4-oxadiazol-3-yl]phenyl}sulfonyl)amino]-5-fluorophenyl}-1-cyanocyclopropane carboxamide], in the assay on HCMV strain TB40/E, the “virions in the cytoplasm” value is “no virions could be detected”, the “concentration of DB” value was “strong concentration of DB” and the “concentration that led to optimal results (DB production)” value came out at 30000 nmol/L. In addition, the “concentration that led to good results (DB production)” value in the assay on clinical HCMV isolate turned out to be 30000 nmol/L. Also, in the assay on HCMV strain AD169, the “infectious virus particles” value is reported as “no single infectious virus particle was to be found”, the “accumulation of DB in the cytoplasm” value is reported as “large amounts of DB; also recorded: high concentrations of DB” and the “concentration that led to optimal results (DB production)” value was found to be 500 nmol/L.
